Reference: the NIST ThermoML archive (doi:10.1021/je800637t)
Numbers after ± are expanded uncertainties.

Columns and labels:
[1] = refractive index (Na D-line) (dimensionless); mn = molality of the nth substance listed, in mol/kg; settings: 100.8 kPa, Liquid, Standard Abbe refractometry
[2] = mn = molality of the nth substance listed, in mol/kg; settings: 100.8 kPa, Liquid; for viscosity: Cone and plate viscometry; for electrical conductivity: Kyoto model CM-117 conductivity meter; for mass density: Vibrating tube method

**Q.** Which results are given for `O=[N+]([O-])[O-].[K+]` [potassium nitrate] + O?
**A.** refractive index ([1]; 298.15 K, m1 = 0.3799): 1.33593 ± 0.0004; refractive index ([1]; 298.15 K, m1 = 0.76): 1.33907 ± 0.0004; refractive index ([1]; 298.15 K, m1 = 1.14): 1.34205 ± 0.0004; refractive index ([1]; 298.15 K, m1 = 1.52): 1.34488 ± 0.0004; refractive index ([1]; 298.15 K, m1 = 1.9): 1.34751 ± 0.0004; refractive index ([1]; 298.15 K, m1 = 2.28): 1.35009 ± 0.0004; refractive index ([1]; 298.15 K, m1 = 2.66): 1.35253 ± 0.0004; refractive index ([1]; 298.15 K, m1 = 3.04): 1.35479 ± 0.0004; refractive index ([1]; 298.15 K, m1 = 3.42): 1.35704 ± 0.0004; refractive index ([1]; 298.15 K, m1 = 3.821): 1.35915 ± 0.0004; refractive index ([1]; 313.15 K, m1 = 0.3799): 1.33384 ± 0.0004; refractive index ([1]; 313.15 K, m1 = 0.76): 1.33687 ± 0.0004; refractive index ([1]; 313.15 K, m1 = 1.14): 1.33975 ± 0.0004; refractive index ([1]; 313.15 K, m1 = 1.52): 1.34248 ± 0.0004; refractive index ([1]; 313.15 K, m1 = 1.9): 1.345 ± 0.0004; refractive index ([1]; 313.15 K, m1 = 2.28): 1.34761 ± 0.0004; refractive index ([1]; 313.15 K, m1 = 2.66): 1.34991 ± 0.0004; refractive index ([1]; 313.15 K, m1 = 3.04): 1.35227 ± 0.0004; refractive index ([1]; 313.15 K, m1 = 3.42): 1.35443 ± 0.0004; refractive index ([1]; 313.15 K, m1 = 3.8): 1.35643 ± 0.0004; refractive index ([1]; 313.15 K, m1 = 4.581): 1.36051 ± 0.00041; refractive index ([1]; 313.15 K, m1 = 5.341): 1.36426 ± 0.00041; refractive index ([1]; 313.15 K, m1 = 6.273): 1.36812 ± 0.00041; viscosity ([2]; 298.15 K, m1 = 0.3799): 0.879 ± 0.008 mPa·s; viscosity ([2]; 298.15 K, m1 = 0.76): 0.87 ± 0.011 mPa·s; viscosity ([2]; 298.15 K, m1 = 1.14): 0.869 ± 0.008 mPa·s; viscosity ([2]; 298.15 K, m1 = 1.52): 0.872 ± 0.012 mPa·s; viscosity ([2]; 298.15 K, m1 = 1.9): 0.881 ± 0.008 mPa·s; viscosity ([2]; 298.15 K, m1 = 2.28): 0.889 ± 0.008 mPa·s; viscosity ([2]; 298.15 K, m1 = 2.66): 0.901 ± 0.011 mPa·s; viscosity ([2]; 298.15 K, m1 = 3.04): 0.914 ± 0.014 mPa·s; viscosity ([2]; 298.15 K, m1 = 3.42): 0.931 ± 0.008 mPa·s; viscosity ([2]; 298.15 K, m1 = 3.821): 0.95 ± 0.009 mPa·s; electrical conductivity ([2]; 298.15 K, m1 = 0.3799): 0.000381 ± 5e-06 S/m; electrical conductivity ([2]; 298.15 K, m1 = 0.76): 0.000705 ± 8e-06 S/m; electrical conductivity ([2]; 298.15 K, m1 = 1.14): 0.000985 ± 1.2e-05 S/m; electrical conductivity ([2]; 298.15 K, m1 = 1.52): 0.00122 ± 1.5e-05 S/m; electrical conductivity ([2]; 298.15 K, m1 = 1.9): 0.00144 ± 1.7e-05 S/m; electrical conductivity ([2]; 298.15 K, m1 = 2.28): 0.00162 ± 1.9e-05 S/m; electrical conductivity ([2]; 298.15 K, m1 = 2.66): 0.00179 ± 2.1e-05 S/m; electrical conductivity ([2]; 298.15 K, m1 = 3.04): 0.00194 ± 2.3e-05 S/m; electrical conductivity ([2]; 298.15 K, m1 = 3.42): 0.00211 ± 2.5e-05 S/m; electrical conductivity ([2]; 298.15 K, m1 = 3.821): 0.00223 ± 2.7e-05 S/m; mass density ([2]; 298.15 K, m1 = 0.3799): 1020.03 ± 0.09 kg/m3; mass density ([2]; 298.15 K, m1 = 0.76): 1041.91 ± 0.06 kg/m3; mass density ([2]; 298.15 K, m1 = 1.14): 1062.91 ± 0.08 kg/m3; mass density ([2]; 298.15 K, m1 = 1.52): 1083.04 ± 0.12 kg/m3; mass density ([2]; 298.15 K, m1 = 1.9): 1102.4 ± 0.12 kg/m3; mass density ([2]; 298.15 K, m1 = 2.28): 1121.03 ± 0.09 kg/m3; mass density ([2]; 298.15 K, m1 = 2.66): 1139.02 ± 0.1 kg/m3; mass density ([2]; 298.15 K, m1 = 3.04): 1156.32 ± 0.13 kg/m3; mass density ([2]; 298.15 K, m1 = 3.42): 1173.06 ± 0.12 kg/m3; mass density ([2]; 298.15 K, m1 = 3.821): 1189.24 ± 0.13 kg/m3; viscosity ([2]; 313.15 K, m1 = 0.3799): 0.652 ± 0.01 mPa·s; viscosity ([2]; 313.15 K, m1 = 0.76): 0.654 ± 0.007 mPa·s; viscosity ([2]; 313.15 K, m1 = 1.14): 0.657 ± 0.008 mPa·s; viscosity ([2]; 313.15 K, m1 = 1.52): 0.665 ± 0.012 mPa·s; viscosity ([2]; 313.15 K, m1 = 1.9): 0.673 ± 0.008 mPa·s; viscosity ([2]; 313.15 K, m1 = 2.28): 0.682 ± 0.009 mPa·s; viscosity ([2]; 313.15 K, m1 = 2.66): 0.693 ± 0.01 mPa·s; viscosity ([2]; 313.15 K, m1 = 3.04): 0.703 ± 0.008 mPa·s; viscosity ([2]; 313.15 K, m1 = 3.42): 0.716 ± 0.01 mPa·s; viscosity ([2]; 313.15 K, m1 = 3.8): 0.733 ± 0.014 mPa·s; viscosity ([2]; 313.15 K, m1 = 4.581): 0.76 ± 0.008 mPa·s; viscosity ([2]; 313.15 K, m1 = 5.341): 0.803 ± 0.009 mPa·s; viscosity ([2]; 313.15 K, m1 = 6.273): 0.844 ± 0.011 mPa·s; electrical conductivity ([2]; 313.15 K, m1 = 0.3799): 0.000528 ± 6e-06 S/m; electrical conductivity ([2]; 313.15 K, m1 = 0.76): 0.000954 ± 1.1e-05 S/m; electrical conductivity ([2]; 313.15 K, m1 = 1.14): 0.00129 ± 1.5e-05 S/m; electrical conductivity ([2]; 313.15 K, m1 = 1.52): 0.00159 ± 1.9e-05 S/m; electrical conductivity ([2]; 313.15 K, m1 = 1.9): 0.00184 ± 2.2e-05 S/m; electrical conductivity ([2]; 313.15 K, m1 = 2.28): 0.00208 ± 2.5e-05 S/m; electrical conductivity ([2]; 313.15 K, m1 = 2.66): 0.00227 ± 2.7e-05 S/m; electrical conductivity ([2]; 313.15 K, m1 = 3.04): 0.00248 ± 3e-05 S/m; electrical conductivity ([2]; 313.15 K, m1 = 3.42): 0.00263 ± 3.2e-05 S/m; electrical conductivity ([2]; 313.15 K, m1 = 3.8): 0.00278 ± 3.3e-05 S/m; electrical conductivity ([2]; 313.15 K, m1 = 4.581): 0.00308 ± 3.7e-05 S/m; electrical conductivity ([2]; 313.15 K, m1 = 5.341): 0.0033 ± 4e-05 S/m; electrical conductivity ([2]; 313.15 K, m1 = 6.273): 0.00357 ± 4.3e-05 S/m; mass density ([2]; 313.15 K, m1 = 0.3799): 1014.52 ± 0.07 kg/m3; mass density ([2]; 313.15 K, m1 = 0.76): 1035.85 ± 0.05 kg/m3; mass density ([2]; 313.15 K, m1 = 1.14): 1056.36 ± 0.1 kg/m3; mass density ([2]; 313.15 K, m1 = 1.52): 1076.08 ± 0.07 kg/m3; mass density ([2]; 313.15 K, m1 = 1.9): 1095.07 ± 0.09 kg/m3; mass density ([2]; 313.15 K, m1 = 2.28): 1113.37 ± 0.13 kg/m3; mass density ([2]; 313.15 K, m1 = 2.66): 1131.04 ± 0.1 kg/m3; mass density ([2]; 313.15 K, m1 = 3.04): 1148.05 ± 0.13 kg/m3; mass density ([2]; 313.15 K, m1 = 3.42): 1164.53 ± 0.15 kg/m3; mass density ([2]; 313.15 K, m1 = 3.8): 1180.49 ± 0.12 kg/m3; mass density ([2]; 313.15 K, m1 = 4.581): 1211.11 ± 0.15 kg/m3; mass density ([2]; 313.15 K, m1 = 5.341): 1239.46 ± 0.18 kg/m3; mass density ([2]; 313.15 K, m1 = 6.273): 1271.3 ± 0.2 kg/m3
